Results taken from patent US20240141017A1, “FLUORESCENT BIOSENSORS AND METHODS OF USE FOR DETECTING CELL SIGNALING EVENTS” (THE REGENTS OF THE UNIVERSITY OF MICHIGAN, priority 2021, published 2024).

B1: Gαi protein mimic nanobody 39 (Nb39) (VHH)
VHH: QVQLVESGGGLVRPGGSLRLSCVDSERTSYPMGWFRRAPGKEREFVASITWSGIDPTYADSVADRFTTSRDVANNTLYLQMNSLKHEDTAVYYCAARAPVGQSSSPYDYDYWGQGTQVTVSS

Tests used:
M-SPOTIT2 = format: cell-based; conditions: pH 11
MOR = MOR (Homo sapiens, UniProt P35372); conditions: previous studies; cited from earlier work
Sequence of MOR (P35372 whole entry): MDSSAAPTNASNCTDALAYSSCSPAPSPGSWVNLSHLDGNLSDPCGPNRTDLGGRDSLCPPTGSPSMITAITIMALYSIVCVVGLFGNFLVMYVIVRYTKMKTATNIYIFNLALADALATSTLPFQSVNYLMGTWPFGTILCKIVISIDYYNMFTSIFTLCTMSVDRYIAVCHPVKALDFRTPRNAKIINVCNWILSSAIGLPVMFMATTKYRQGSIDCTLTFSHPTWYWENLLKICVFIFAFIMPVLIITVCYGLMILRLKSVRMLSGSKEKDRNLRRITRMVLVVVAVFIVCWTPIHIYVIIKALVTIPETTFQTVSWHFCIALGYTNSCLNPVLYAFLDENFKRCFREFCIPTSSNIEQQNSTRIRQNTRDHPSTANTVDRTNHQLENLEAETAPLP

K-SPOTIT1.0 = target: T1, K-SPOTIT1.0 (Homo sapiens, UniProt P41145); format: cell-based
T1 construct: expressed in transfected cells; host or cells: HEK293T (lentiviral infection)
T1 sequence (P41145 with tags, fused parts or gaps): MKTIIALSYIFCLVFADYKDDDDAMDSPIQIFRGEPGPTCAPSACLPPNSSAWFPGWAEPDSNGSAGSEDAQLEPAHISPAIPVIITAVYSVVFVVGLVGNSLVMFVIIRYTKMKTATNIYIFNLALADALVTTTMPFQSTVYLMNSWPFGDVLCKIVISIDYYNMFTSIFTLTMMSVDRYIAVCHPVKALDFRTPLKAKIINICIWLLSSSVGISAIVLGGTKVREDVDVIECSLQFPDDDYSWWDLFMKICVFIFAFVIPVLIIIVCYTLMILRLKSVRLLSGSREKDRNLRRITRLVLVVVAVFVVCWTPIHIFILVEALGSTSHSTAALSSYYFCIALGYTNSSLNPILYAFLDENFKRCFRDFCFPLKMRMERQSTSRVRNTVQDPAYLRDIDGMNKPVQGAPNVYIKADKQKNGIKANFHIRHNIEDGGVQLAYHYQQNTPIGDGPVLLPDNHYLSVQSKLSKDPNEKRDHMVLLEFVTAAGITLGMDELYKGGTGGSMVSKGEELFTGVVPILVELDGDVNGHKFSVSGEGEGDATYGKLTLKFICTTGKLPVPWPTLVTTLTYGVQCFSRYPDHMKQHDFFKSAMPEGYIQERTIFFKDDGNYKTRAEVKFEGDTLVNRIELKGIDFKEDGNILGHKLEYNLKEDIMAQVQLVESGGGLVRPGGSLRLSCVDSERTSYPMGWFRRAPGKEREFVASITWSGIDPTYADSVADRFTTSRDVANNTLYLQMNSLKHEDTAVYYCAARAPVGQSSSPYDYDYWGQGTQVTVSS

[1] = target: kappa-opioid receptor (KOR) as in K-SPOTIT1.0 (Homo sapiens (Human)) (UniProt P41145); test: cell-based or functional assay

Molecule	SNR (M-SPOTIT2)	further results
O=C(Cc1ccc(Cl)c(Cl)c1)N1CCCCC1CN1CCCC1 (stereo not drawn) [BRL52537]	much lower SNR	–
CC(C)C[C@@H](NC(=O)[C@H](Cc1ccccc1)NC(=O)CNC(=O)[C@@H](C)NC(=O)[C@@H](N)Cc1ccc(O)cc1)C(=O)O [DADLE]	–	affinity for MOR (MOR): weak affinity
Oc1ccc2c3c1O[C@H]1c4[nH]c5c(c4C[C@@]4(O)[C@@H](C2)N(CC2CC2)CC[C@]314)C[C@@]1(O)[C@H]2Cc3ccc(O)c4c3[C@@]1(CCN2CC1CC1)[C@H]5O4 [Nor-BNI, nor-binaltorphimine]	–	fluorescence before and after addition of KOR antagonist post fluorophore maturation (K-SPOTIT1.0): Comparable fluorescence; fluorescence increase when antagonist added after initial 30-second agonist stimulation, vs Nor-BNI only cells (K-SPOTIT1.0): No significant fluorescence increase
COC(=O)[C@@H]1C[C@H](OC(C)=O)C(=O)[C@H]2[C@@]1(C)CC[C@H]1C(=O)O[C@H](c3ccoc3)C[C@]21C [Sal A, Salvinorin A]	much lower SNR	–
CN(C)C(=O)C(CCN1CCC(O)(c2ccc(Cl)cc2)CC1)(c1ccccc1)c1ccccc1 [loperamide]	highest SNR	–
CN1CC[C@]23c4c5ccc(O)c4O[C@H]2[C@@H](O)C=C[C@H]3[C@H]1C5 [morphine]	highest SNR	–
C=CCN1CC[C@]23c4c5ccc(O)c4O[C@H]2C(=O)CC[C@@]3(O)[C@H]1C5 [naloxone]	much lower SNR	–
COc1ccc2c3c1O[C@H]1C(=O)CC[C@@]4(O)[C@@H](C2)N(C)CC[C@]314 [oxycodone]	highest SNR	–
B1	–	cpGFP fluorescence of K-SPOTIT1.0 after a 30-second pulse of Sal A, then 24 hours of incubation [1]: 4.2 fold; cpGFP fluorescence of K-SPOTIT1.0 after longer Sal A incubation [1]: 12 fold; cpGFP fluorescence of K-SPOTIT1.0 in HEK293T cells, 24 hours with 10 µM Salvinorin A against no Sal A [1]: 10.9 fold
